Structures can show the parent of a compound that is named as a salt.

The results in this text go back to patent US12544347B2, “Anti-cancer combination and a method of therapy using the combination” (NATIONAL CENTRE FOR CELL SCIENCE, priority 2018, dated 2026).

Assay type in all cases: cell-based
Data set [1] has as its system LN-18 cells. As to the kind of experiment: MTT assay, cell viability in LN-18 cells (monolayer or multicellular spheroids). The conditions noted are these: 24 hr. The procedure:
(§1) FIG. 1 depicts cell viability assessed by MTT assay in GBM cell lines-LN-18 and LN-229 using tamoxifen (TAM) at concentration of 5 μg/ml, 10 μg/ml and 15 μg/ml; individually and in combination with Valproic Acid (VPA) (2 mM) wherein the cells were cultured as monolayer (ML) or Multicellular Spheroids (MCS). Unt-open bar-represents untreated cells and hatched bar—[…] (2 mM). Further, the open bars (in 5, 10 15) depict TAM alone and the hatched bars depict TAM in combination with VPA. FIG. 1 also depicts the P values (represented as *) significant for differences between TAM alone versus TAM+VPA. The images are LN-18 cells grown as 2D cultures—ML and 3D-MCS.
FIG. 3 depicts the effect of Valpromide (VPM), an analogue of VPA causing sensitization of tamoxifen (TAM) which induced cell death in LN-18 cells cultured as monolayer (ML). […] The P values (represented as *) are significant for differences between TAM alone versus TAM+VPA/VPM.
MTT assay was employed for assessing the combined action of tamoxifen (TAM) and VPA. LN-18 cells and LN-229 were seeded in 96 well plate (5000 cells/100 ul/well) in complete medium and cultured for 24 hr in two culture models-monolayer and 3D culture. Cells were treated with tamoxifen (TAM) at 3 concentrations-5 μg/ml, 10 μg/ml and 15 μg/ml either individually or in combination with Valproic Acid (VPA) (2 mM) for 24 hr. MTT was added and after 4 hr the crystals were solubilized using DMSO. Absorbance was recorded at 490 nm (test filter) and 570 nm (reference filter). The % cell viability in treated cells was calculated considering the readings in untreated cells as 100%. The results are presented at FIG. 1. […] From FIG. 1, it is evident that the combination of the present invention is synergistic.
LN-18 cells (ML) were seeded in 96 well plate (5000 cells/100 ul/well) in complete medium and cultured for 24 hr. […] Absorbance was recorded at 490 nm (test filter) and 570 nm (reference filter). The % cell viability with treatment was calculated with readings in untreated cells considered as 100%. […]
(In general: Tetrazolium dyes change colour on reduction, which living cells bring about.)

Data set [2] deals with LN-229 cells. In words: MTT assay, cell viability in LN-229 cells (monolayer or multicellular spheroids). The conditions noted are these: LN-229 MCS; TAM alone; 24 hr. The procedure:
as §1
MTT assay was employed for assessing the combined action of tamoxifen (TAM) and VPA. LN-18 cells and LN-229 were seeded in 96 well plate (5000 cells/100 ul/well) in complete medium and cultured for 24 hr in two culture models-monolayer and 3D culture. Cells were treated with tamoxifen (TAM) at 3 concentrations-5 μg/ml, 10 μg/ml and 15 μg/ml either individually or in combination with Valproic Acid (VPA) (2 mM) for 24 hr. MTT was added and after 4 hr the crystals were solubilized using DMSO. Absorbance was recorded at 490 nm (test filter) and 570 nm (reference filter). The % cell viability in treated cells was calculated considering the readings in untreated cells as 100%. The results are presented at FIG. 1. […]

In data set [3] the test system is prostate apoptosis response (Par)-4. As to the kind of experiment: Western blotting of intracellular and secretory Par-4 in LN-18 cells. The conditions noted are these: TAM 10 μg/ml, VPA 2 mM, alone or combined, 48 hr. The procedure: FIG. 4 depicts the effect of combination of tamoxifen (10 μg/ml) and valproic acid (2 mM) on the levels of secretory Par-4 and expression of GRP78 in […] cells wherein the control (C) represents untreated cells, V represents for valproic acid, T represents for tamoxifen and V+T represents combination of tamoxifen and valproic acid. The LN-18 cells were treated with tamoxifen or valproic acid alone or in combination for 48 hrs.
LN-18 cells were seeded in 6 well plate (0.3 million cells/well) and treated with TAM (10 μg/ml) and VPA (2 mM) either individually or in combination for 48 hr. Cell lysates were assessed for expression of intracellular prostate apoptosis response (Par)-4 and secretory Par-4 was measured in supernatants. Western blotting was done using 10% gels and the proteins were identified using specific antibodies followed by probing with luminol-based Enhanced Chemiluminescent (ECL) western blotting substrate. The results are presented at FIG. 4.
In general terms: In western blotting, separated proteins are transferred to a membrane and probed.

Data set [4] has the same test system. In words: Western blotting of intracellular Par-4 in LN-229 cells. The conditions noted are these: LN-229 cell lysates; TAM 12 μg/ml, VPA 2 mM, alone or combined; 24 hr.
Experimental: FIG. 5 depicts the effect of tamoxifen (12 μg/ml) or valproic acid (2 mM) alone or combination of tamoxifen and valproic acid on Par-4 expression in LN-229 cells for 24 hr. GAPDH was used as loading control and control group (C) represents untreated cells. LN-229 cells were seeded in 6 well plate (0.3 million cells/well) and treated with TAM (12 μg/ml) and VPA (2 mM) either individually or in combination for 24 hr. Cell lysates were assessed for expression of intracellular prostate apoptosis response (Par)-4. Western blotting was done using 10% gels and the proteins were identified using specific antibodies followed by probing with luminol-based Enhanced Chemiluminescent (ECL) western blotting substrate.

In the case of `CC/C(=C(\c1ccccc1)c1ccc(OCCN(C)C)cc1)c1ccccc1` [TAM, (Z)-2[p[(1,2-diphenyl-1-butenyl)phenoxyl]-N,N-dimethylamine citrate], the “effect on % cell viability (MTT)” value in data set [1] (LN-18 MCS, TAM alone) is reported as “resistant”; in data set [1] (LN-18 cells, TAM 15 ug/ml alone) it was “toxic”; in data set [1] (monolayer, TAM 5, 10 and 15 μg/ml alone), “dose dependent”; in data set [2], “resistant”. The “cellular Par-4 level (western blot)” value in data set [3] (LN-18 cell lysates) is recorded as “enhanced”. Moreover, the “secretory Par-4 level (western blot)” value in data set [3] (LN-18 supernatants) is “enhanced”.
Take `CCCC(CCC)C(=O)O` [VPA, Valproic acid]: in data set [4], the “cellular Par-4 expression (western blot)” value is reported as “induced”.
